Source: PMC7901654, “Bioisosteric Discovery of NPA101.3, a Second-Generation RET/VEGFR2 Inhibitor Optimized for Single-Agent Polypharmacology” (Journal of Medicinal Chemistry, 2020)

Experiments:
[1] = tested on: Nthy-ori-3.1, BCPAP, 8505-C, PC-9, A549, CALU-1; assay: SHC/MAPK signalling in control cell lines lacking RET oncogenes; type: cell-based, human; conditions: 2 h treatment
Protocol: NPA101.3 inhibited RET autophosphorylation and signaling along the SHC/MAPK pathway in human cancer cell lines endogenously expressing RET oncogenic variants, including MTC cell lines, TT (RET/C634W) and MZ-CRC-1 (RET/M918T), and PTC cell line TPC-1 (CCDC6-RET); in the lung adenocarcinoma cell line Lc-2/ad (CCDC6-RET), only RET and SHC (but not MAPK) dephosphorylation was detectable (Figure S4).
Protein lysates were prepared according to standard procedures. Briefly, cells were lysed in a buffer containing 50 mM N-2-hydroxyethylpiperazine-N′-2-ethanesulfonic acid (HEPES; pH 7.5), 1% (v/v) Triton X-100, 150 mM NaCl, 5 mM EGTA, 50 mM NaF, 20 mM sodium pyrophosphate, 1 mM sodium vanadate, 2 mM phenylmethanesulfonyl fluoride (PMSF), and 1 μg/mL aprotinin. Lysates were clarified by centrifugation at 10000g for 15 min. […] Immune complexes were detected with the enhanced chemiluminescence kit (Amersham Pharmacia Biotech, Little Chalfont, U.K.). Anti-phospho-SHC (#Y317), which recognizes SHC protein when phosphorylated on Y317, was from Upstate Biotechnology Inc. (Lake Placid, NY). Anti-SHC (H-108) was from Santa Cruz Biotechnology (Santa Cruz, CA). Anti-MAPK (9101) and anti-phospho-MAPK (9102), specific for p42/44MAPK (ERK1/2) phosphorylated on Thr202/Tyr204, antibodies were from Cell Signaling Technologies (Danvers, MA). […]

[2] = tested on: CCDC6-RET, NCOA4-RET, and FGFR1OP-RET; assay: RET phosphorylation Western blot in NIH3T3 cells, rearranged RET; type: cell-based; conditions: 2 h
Protocol: Fibroblasts transfected with RET/C634R were treated with increasing doses of NPA101.3, ranging from 0.1 to 10.0 nM. RET autophosphorylation was assessed by Western blotting using two different antibodies that can recognize phosphorylated Y905, located in the RET kinase activation loop, or Y1062, a multidocking site involved in RET downstream signaling.[41]
Figure 4 NPA101.3-mediated inhibition of phosphorylation and signaling of oncogenic RET mutants and VEGFR2 in intact cells. Serum-starved RAT1 cells exogenously expressing the (A and B) indicated RET point mutants or (C) NIH3T3 cells exogenously expressing the indicated RET rearranged mutants were treated for 2 h with the indicated concentrations of the compound. Total cell lysates (50 μg) were subjected to immunoblotting with anti-phospho-Y1062 (αp1062) and anti-phospho-Y905 (αp905) RET antibodies. The blots were normalized using the anti-RET (αRET) antibody. (D) HEK293 cells were transiently transfected with human VEGFR2; 36 h after transfection, cells were serum starved for 12 h. The indicated doses of the compound or vehicle (NT) were added for 2 h, and then VEGFA (100 ng/mL) stimulation was applied for 15 min. […]
Protein lysates were prepared according to standard procedures. […] Immune complexes were detected with the enhanced chemiluminescence kit (Amersham Pharmacia Biotech, Little Chalfont, U.K.). […]

[3] = tested on: RET-driven Ba/F3 cells (RET/C634R, RET/M918T, CCDC6-RET); assay: Cell growth curves, RET-driven Ba/F3 cells taken together; type: cell-based, murine; conditions: Mus musculus, BaF3; range over RET-transfected Ba/F3 lines; read-out: IC50, RET-driven Ba/F3 cell proliferation
Excerpt: The murine pro-B cell line Ba/F3 requires IL-3 (interleukin 3) for proliferation and survival; this dependency is bypassed by active tyrosine kinases. Therefore, the Ba/F3 cell line is a standard cell culture model for determining the activity and drug-mediated inhibition of tyrosine kinases.[42] Accordingly, stable transfection of RET/C634R, RET/M918T, and CCDC6-RET oncoproteins promotes IL-3-independent growth (Figure 5).
Nthy-ory-3-1 (10000 per well), TPC-1 (10000 per well), MZ-CRC-1 (100000 per well), TT (200000 per well), Lc-2/ad (100000 per well), BCPAP (10000 per well), 8505-C (10000 per well), PC-9 (10000 per well), A549 (10000 per well), CALU-1 (10000 per well), NIH3T3 RET/C634Y (10000 per well), and NIH3T3 HRAS/G12V (10000 per well) were seeded in six-well tissue culture plates. Cells were kept in 2% (TPC-1), 5% (Nthy-ori-3-1), or 10% (BCPAP, 8505-C, CALU-1, A549, PC-9, TT, MZ-CRC-1, and Lc-2/ad) fetal calf serum or in 2% (NIH3T3 RET/C634Y and HRAS/G12V) calf serum. Ba/F3 cells (200000 per well in 2 mL) were seeded in six-well tissue culture plates and kept in 10% fetal calf serum. […] Cells were counted every day (Ba/F3), every 2 days (fibroblasts), or every 2–3 days (human cell lines). […] IC50 doses were calculated through a curve fitting analysis from last day of growth curves using the PRISM software program (Graphpad Software Inc.).

## CC(C)(C)c1cc(NC(=O)Cc2ccc(-n3cnc4cc(-c5ccc(S(C)(=O)=O)cc5)ccc43)cc2)no1 [NPA101.3]
[1]
  effect on SHC/MAPK signaling: Virtually no effect
[2]
  phosphorylation of rearranged RET oncoproteins: highly sensitive
[3]
  IC50: 1.6 to 3.1 nM
